Results reported in ChEMBL document CHEMBL3217729, “Sangamides, a new class of cyclophilin-inhibiting host-targeted antivirals for treatment of HCV infection” (Medchemcomm, 2012).
Activity calls are given as the source filed them. No cut-off for these calls is given here.

Tests used:
in vitro = conditions: mouse, liver microsomes
Description: Half life in mouse liver microsomes at 1 uM by LC-MS/MS analysis

[1] = Cytostatic activity against human Huh5-2 cells assessed as decrease in cell proliferation after 3 days by MTS method; assay type: ADME, cell-based, Huh-5-2
Hepatitis C virus [2] = assay: Antiviral activity against Hepatitis C virus genotype 2a JFH-1 infected in human Huh7 cells assessed as decrease in subgenomic RNA level after 72 hrs by RT-PCR analysis; assay type: functional, cell-based, Hepacivirus hominis; conditions: genotype 2a JFH-1, Huh-7, 72 h
Hepatitis C virus [3] = assay: Antiviral activity against Hepatitis C virus genotype 1b I389luc-ubi-neo/NS3-3'/5.1 subgenomic replicon infected in human Huh5-2 cells after 4 days by luciferase assay; assay type: functional, cell-based, Hepacivirus hominis; conditions: Huh-5-2, 96 h
[4] = target: T1, Peptidyl-prolyl cis-trans isomerase A (Homo sapiens, UniProt P62937); assay: Inhibition of recombinant GST-tagged CypA (unknown origin)/HCV Con1 NS5A-His interaction after 16 hrs by ELISA
T1 sequence (P62937 whole entry): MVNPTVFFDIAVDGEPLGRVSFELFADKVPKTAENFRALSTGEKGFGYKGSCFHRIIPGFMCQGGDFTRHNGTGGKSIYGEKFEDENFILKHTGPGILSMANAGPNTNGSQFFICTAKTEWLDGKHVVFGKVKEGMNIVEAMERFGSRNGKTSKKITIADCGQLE

[5] = Half life in human liver microsomes at 1 uM by LC-MS/MS analysis; assay type: ADME
[6] = Drug level in CD-1 mouse blood at 5 mg/kg, po administered as single dose measured for 24 hrs post-dose by LC-MS/MS analysis; assay type: ADME, organism-based; design: dose 5 mg/kg, route oral; conditions: read-out: Drug uptake
PBMC = assay: Immunosuppressive activity in human PBMC isolated from two individuals assessed as inhibition of proliferation using [3H]thymidine by mixed lymphocyte reaction assay; assay type: cell-based
Hepatitis C virus [7] = assay: Antiviral activity against Hepatitis C virus genotype 1b Con1 infected in human Huh7 cells assessed as viral rebound by measuring replicon RNA content at 0.5 to 1 uM after drug removal by RT-qPCR analysis; assay type: functional, cell-based; conditions: Hepacivirus hominis, Huh-7
[8] = Solubility of the compound in phosphate buffered saline at pH 7.4 after 4 hrs by LC-MS/MS analysis
[9] = Selectivity index, ratio of CC50 for human Huh5-2 cells to EC50 for Hepatitis C virus genotype 1b I389luc-ubi-neo/NS3-3'/5.1 subgenomic replicon infected in human Huh5-2 cells; assay type: toxicity, cell-based, Huh-5-2; conditions: read-out: Ratio CC50/EC50
Hepatitis C virus [10] = assay: Antiviral activity against Hepatitis C virus genotype 1b Con1 infected in human Huh7 cells assessed as decrease in subgenomic RNA level after 72 hrs by RT-PCR analysis; assay type: functional, cell-based, Hepacivirus hominis; conditions: genotype 1b Con1, Huh-7, 72 h
Liver = assay: Drug level in CD-1 mouse liver at 5 mg/kg, po administered as single dose measured per gm of tissue for 24 hrs post-dose by LC-MS/MS analysis; assay type: ADME, organism-based; design: dose 5 mg/kg, route oral; conditions: in vivo
[11] = Half life in human hepatocytes at 1 uM by LC-MS/MS analysis; assay type: ADME, cell-based, Hepatocyte
[12] = target: ATP-dependent translocase ABCB1 (Homo sapiens, UniProt P08183); assay: Inhibition of MDR1 (unknown origin) expressed in MDCK1 cells assessed as reduction of loperamide substrate permeability up to 50 uM after 60 mins by LC-MS/MS analysis; assay type: ADME, cell-based; conditions: mdck1, 1 h
Chain of ATP-dependent translocase ABCB1 (P08183 whole entry): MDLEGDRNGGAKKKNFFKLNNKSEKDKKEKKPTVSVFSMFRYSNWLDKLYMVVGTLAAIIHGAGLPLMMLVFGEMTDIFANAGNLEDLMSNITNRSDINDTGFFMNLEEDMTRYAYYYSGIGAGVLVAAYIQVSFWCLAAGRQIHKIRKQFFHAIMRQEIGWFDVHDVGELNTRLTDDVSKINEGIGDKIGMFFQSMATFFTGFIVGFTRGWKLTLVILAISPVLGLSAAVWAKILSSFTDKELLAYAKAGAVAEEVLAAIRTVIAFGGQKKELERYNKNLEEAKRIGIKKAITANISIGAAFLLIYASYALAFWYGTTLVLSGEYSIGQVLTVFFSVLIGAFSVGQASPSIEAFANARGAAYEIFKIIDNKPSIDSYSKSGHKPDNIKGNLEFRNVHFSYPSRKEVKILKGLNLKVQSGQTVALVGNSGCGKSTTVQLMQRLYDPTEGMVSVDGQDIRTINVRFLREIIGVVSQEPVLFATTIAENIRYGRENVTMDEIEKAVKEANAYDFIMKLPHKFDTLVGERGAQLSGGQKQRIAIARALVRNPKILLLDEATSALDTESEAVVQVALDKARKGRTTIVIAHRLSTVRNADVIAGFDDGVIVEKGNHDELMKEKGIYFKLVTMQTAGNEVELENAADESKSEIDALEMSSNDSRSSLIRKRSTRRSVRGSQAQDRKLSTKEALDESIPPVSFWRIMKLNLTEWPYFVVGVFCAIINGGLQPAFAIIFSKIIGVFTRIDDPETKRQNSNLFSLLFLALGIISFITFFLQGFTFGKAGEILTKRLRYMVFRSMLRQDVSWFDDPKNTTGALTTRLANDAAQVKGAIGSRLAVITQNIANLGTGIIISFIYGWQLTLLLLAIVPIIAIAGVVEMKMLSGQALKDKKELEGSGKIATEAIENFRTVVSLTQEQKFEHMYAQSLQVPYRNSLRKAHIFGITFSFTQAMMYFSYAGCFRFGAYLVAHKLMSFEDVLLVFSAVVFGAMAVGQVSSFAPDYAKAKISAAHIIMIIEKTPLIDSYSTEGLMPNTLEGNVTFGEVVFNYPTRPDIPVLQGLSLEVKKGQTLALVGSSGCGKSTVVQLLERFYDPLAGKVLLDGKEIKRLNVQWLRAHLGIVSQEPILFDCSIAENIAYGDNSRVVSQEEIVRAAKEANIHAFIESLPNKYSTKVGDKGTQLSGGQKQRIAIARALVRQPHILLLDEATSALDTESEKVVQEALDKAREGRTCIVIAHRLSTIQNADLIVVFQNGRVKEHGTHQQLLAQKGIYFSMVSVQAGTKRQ

Hepatitis C virus [13] = assay: Antiviral activity against Hepatitis C virus genotype 1a H77 infected in human Huh7 cells assessed as decrease in subgenomic RNA level after 72 hrs by RT-PCR analysis; assay type: functional, cell-based, Hepacivirus hominis; conditions: genotype 1a H77, Huh-7, 72 h
[14] = target: T1, Peptidyl-prolyl cis-trans isomerase A; assay: Inhibition of PPIase activity of recombinant CypA (unknown origin) assessed as chymotrypsin-mediated N-succinyl-Ala-Ala-Pro-Phe-p-nitroanilide hydrolysis after 1 hr by spectrophotometric analysis
physchem = conditions: n-octanol/potassium phosphate buffer, pH 7.4
[15] = target: T2, ATP-binding cassette sub-family C member 2 (Homo sapiens, UniProt Q92887); assay: Inhibition of ATPase activity of MRP2 (unknown origin) expressed in membrane assessed as amount of phosphate released using probenecid as substrate up to 50 uM by molybdenum blue assay
T2 sequence (Q92887 whole entry): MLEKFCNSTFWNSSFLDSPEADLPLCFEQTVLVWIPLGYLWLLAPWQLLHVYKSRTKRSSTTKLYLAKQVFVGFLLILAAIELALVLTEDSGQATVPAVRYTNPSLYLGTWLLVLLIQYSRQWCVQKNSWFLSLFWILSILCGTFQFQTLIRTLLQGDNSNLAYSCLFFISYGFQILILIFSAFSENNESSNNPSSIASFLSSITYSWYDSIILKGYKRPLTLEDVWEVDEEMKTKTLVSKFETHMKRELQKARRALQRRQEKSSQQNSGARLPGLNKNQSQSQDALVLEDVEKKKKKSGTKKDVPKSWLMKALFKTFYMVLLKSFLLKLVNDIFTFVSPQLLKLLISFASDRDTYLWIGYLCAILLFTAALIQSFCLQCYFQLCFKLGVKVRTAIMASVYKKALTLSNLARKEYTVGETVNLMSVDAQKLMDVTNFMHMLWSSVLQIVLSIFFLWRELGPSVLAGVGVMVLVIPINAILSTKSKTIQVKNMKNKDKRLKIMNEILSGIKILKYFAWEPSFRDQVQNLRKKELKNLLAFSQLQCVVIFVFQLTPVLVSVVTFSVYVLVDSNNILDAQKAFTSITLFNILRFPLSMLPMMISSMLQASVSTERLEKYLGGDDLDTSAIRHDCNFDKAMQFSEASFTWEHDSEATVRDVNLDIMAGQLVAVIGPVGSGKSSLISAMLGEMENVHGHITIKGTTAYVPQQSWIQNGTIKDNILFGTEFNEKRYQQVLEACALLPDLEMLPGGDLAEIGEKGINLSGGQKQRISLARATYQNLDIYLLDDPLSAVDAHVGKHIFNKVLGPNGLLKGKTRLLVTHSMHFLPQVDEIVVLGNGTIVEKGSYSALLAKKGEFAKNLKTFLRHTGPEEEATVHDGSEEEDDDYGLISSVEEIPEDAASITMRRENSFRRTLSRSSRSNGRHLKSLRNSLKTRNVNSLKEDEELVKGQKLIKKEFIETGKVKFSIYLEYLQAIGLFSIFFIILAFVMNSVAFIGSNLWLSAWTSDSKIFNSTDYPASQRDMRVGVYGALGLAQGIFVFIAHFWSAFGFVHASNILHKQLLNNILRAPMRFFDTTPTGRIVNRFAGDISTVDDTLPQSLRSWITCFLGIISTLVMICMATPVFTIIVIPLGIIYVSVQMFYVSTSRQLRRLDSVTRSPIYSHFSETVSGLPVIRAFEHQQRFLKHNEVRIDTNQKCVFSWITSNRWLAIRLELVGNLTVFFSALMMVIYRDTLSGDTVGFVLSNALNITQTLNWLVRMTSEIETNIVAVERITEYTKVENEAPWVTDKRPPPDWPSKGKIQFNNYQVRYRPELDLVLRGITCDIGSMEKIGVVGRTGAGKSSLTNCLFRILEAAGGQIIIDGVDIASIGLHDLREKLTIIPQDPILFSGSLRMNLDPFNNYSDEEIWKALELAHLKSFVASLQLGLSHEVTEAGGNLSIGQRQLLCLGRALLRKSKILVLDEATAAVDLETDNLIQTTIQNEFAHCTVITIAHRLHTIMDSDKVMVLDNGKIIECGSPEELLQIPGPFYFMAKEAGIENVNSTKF

[16] = Ratio of drug level in liver to blood in CD-1 mouse at 5 mg/kg, po administered as single dose measured for 24 hrs post-dose by LC-MS/MS analysis; assay type: ADME, organism-based; design: dose 5 mg/kg, route oral; conditions: liver and blood
[17] = target: T2, ATP-binding cassette sub-family C member 2; assay: Inhibition of ATPase activity of MRP2 (unknown origin) expressed in membrane assessed as amount of phosphate released using probenecid as substrate at 14 uM by molybdenum blue assay
[18] = Percentage bound in human plasma at 1 uM after 5 hrs by dialysis chamber method; assay type: ADME, cell-free; conditions: read-out: PPB (converted)

## CC(=O)CC[C@H]1C(=O)N[C@@H](C(C)C)C(=O)N[C@@H](Cc2cccc(O)c2)C(=O)N2CCCC(N2)C(=O)O[C@H](/C(C)=C/C=C/C(=O)N2CCCCO2)C/C=C/C=C/[C@H](O)[C@H](C)[C@H]1O (stereo partly drawn)
In vitro
  half-life at 1 µM: 5.8 min
[1]
  CC50 at 72 h: > 100000 nM
Hepatitis C virus [2]
  EC50: 89 nM
Hepatitis C virus [3]
  EC50: 125 nM
  EC90: 690 nM
[4]
  IC50: 360 nM
[5]
  half-life at 1 µM: 10.6 min
[6]
  concentration at 24 h: 20 ng/mL
PBMC
  IC50: 1450 nM
Hepatitis C virus [7]
  Activity: Active
[8]
  solubility at 4 h: > 100 µM
[9]
  selectivity ratio: > 800
Hepatitis C virus [10]
  EC50: 58 nM
Liver
  Drug uptake: 20 ng
[11]
  half-life at 1 µM: 220 min
[12]
  inhibition (INH): Not Active
Hepatitis C virus [13]
  EC50: 63 nM
[14]
  IC50: 2.7 nM
physchem
  logD at 1 h: 2.6
[15]
  inhibition (INH): Not Active
[16]
  Kp at 24 h: 3

## CCc1oc2ccccc2c1C(=O)c1cc(Br)c(O)c(Br)c1 [BENZBROMARONE]
[17]
  inhibition (INH): Active

## CON(C)C(=O)/C=C/C=C(\C)[C@@H]1C/C=C/C=C/[C@H](O)[C@H](C)[C@@H](O)[C@@H](CCC(C)=O)C(=O)N[C@@H](C(C)C)C(=O)N[C@@H](Cc2cccc(O)c2)C(=O)N2CCCC(N2)C(=O)O1 (stereo partly drawn)
In vitro
  half-life at 1 µM: 17.5 min
[1]
  CC50 at 72 h: > 100000 nM
Hepatitis C virus [2]
  EC50: 247 nM
Hepatitis C virus [3]
  EC50: 162 nM
  EC90: 920 nM
[4]
  IC50: 200 nM
[5]
  half-life at 1 µM: 26.5 min
PBMC
  IC50: 1060 nM
[8]
  solubility at 4 h: > 100 µM
[9]
  selectivity ratio: > 617
Hepatitis C virus [10]
  EC50: 128 nM
[11]
  half-life at 1 µM: > 240 min
Hepatitis C virus [13]
  EC50: 156 nM
[14]
  IC50: 1.1 nM
physchem
  logD at 1 h: 2.3
[18]
  fraction unbound at 5 h, 1 µM: 0.73
